# Experimental data taken from PubChem BioAssay AID434951 (Broad Institute, 2010).
# Calls of active or inactive are those of the source.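 The calls were made as follows: active = a fitted half-maximal concentration EC50 for the rise in nuclear signal no higher than ten times the top dose tested; inconclusive = flat fit with activity between 30% and 70%, or unusable fit; inactive = EC50 beyond ten times the top dose.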
# Target: Hypoxia-inducible factor 1-alpha (Homo sapiens) (UniProt Q16665)
# Assay: HIF pathway activation, GFP-HIF1alpha translocation – imaging, fluorescence, U2OS GFP-HIF1alpha, confirmation (AID 434951)
# Conditions: U2OS GFP-HIF1alpha nuclear intensity, high-content imaging
# Sequence of Hypoxia-inducible factor 1-alpha (Homo sapiens) (Q16665 whole entry, looked up): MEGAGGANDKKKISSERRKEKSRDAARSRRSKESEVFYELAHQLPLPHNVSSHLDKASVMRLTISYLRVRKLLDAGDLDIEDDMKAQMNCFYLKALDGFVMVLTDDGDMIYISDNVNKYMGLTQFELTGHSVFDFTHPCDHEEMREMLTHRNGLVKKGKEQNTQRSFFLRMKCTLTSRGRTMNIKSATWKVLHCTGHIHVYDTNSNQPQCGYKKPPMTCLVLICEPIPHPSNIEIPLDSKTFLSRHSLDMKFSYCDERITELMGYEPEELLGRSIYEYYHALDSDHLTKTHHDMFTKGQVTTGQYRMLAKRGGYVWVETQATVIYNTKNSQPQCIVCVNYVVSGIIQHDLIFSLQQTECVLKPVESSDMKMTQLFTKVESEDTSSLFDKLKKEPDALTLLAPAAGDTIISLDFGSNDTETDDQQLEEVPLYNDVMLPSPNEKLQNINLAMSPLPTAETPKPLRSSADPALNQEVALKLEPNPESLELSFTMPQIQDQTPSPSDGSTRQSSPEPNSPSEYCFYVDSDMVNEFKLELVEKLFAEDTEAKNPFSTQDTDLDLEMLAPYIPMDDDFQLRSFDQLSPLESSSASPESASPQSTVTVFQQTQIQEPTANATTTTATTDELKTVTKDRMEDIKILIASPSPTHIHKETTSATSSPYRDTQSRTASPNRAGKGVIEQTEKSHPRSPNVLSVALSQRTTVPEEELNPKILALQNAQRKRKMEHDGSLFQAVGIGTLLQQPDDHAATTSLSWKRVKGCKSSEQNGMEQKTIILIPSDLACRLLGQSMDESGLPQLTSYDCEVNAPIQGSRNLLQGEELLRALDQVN
row,SMILES,EC50
1,Clc1ccc(CSc2ccc(-c3ccccn3)nn2)cc1,9.44 µM
2,CCC1Oc2ccccc2N(CC(=O)Nc2ccccc2OC)C1=O (configuration not stated),> 35 µM (inactive)
3,O=[N+]([O-])c1ccc(N/N=C/c2ccccc2O)cc1,> 35 µM (inactive)
4,CCCCNC(=O)c1cc(-c2ccc(F)cc2)on1,9.23 µM
5,O=C(N/N=C(\c1ccccc1)c1ccccn1)c1cccc([N+](=O)[O-])c1,0.629 µM
6,CCCCC(=O)NC(c1ccc(Cl)cc1)c1ccc2cccnc2c1O (configuration not stated),1.66 µM
7,O=C(N/N=C(\c1ccccc1)c1cccnc1)c1cccc(F)c1,2.62 µM
8,Cc1c(Cl)cccc1NC(=S)N/N=C/c1ccccc1Cl,14.8 µM
9,O=C(CN1CCCC1)N/N=C/c1c(O)ccc2ccccc12,8.15 µM
10,Cc1nc([N+](=O)[O-])c(Br)n1Cc1ccc(Cl)c(Cl)c1,> 35 µM (inactive)
11,O=C(N/N=C/c1cc(Br)ccc1O)C(c1ccncc1)N1CCOCC1 (configuration not stated),> 35 µM (inactive)
12,O=C1CCCC(O)=C1C=Nc1cccc(C(F)(F)F)c1,> 35 µM (inactive)
13,C=C(C)Cn1c(CCNC(=O)C(C)C)nc2ccccc21,> 35 µM (inactive)
14,COc1ccc(Nc2nc(N/N=C/c3ccc(N(C)C)cc3)nc(C)c2[N+](=O)[O-])cc1,> 35 µM (inactive)
15,Oc1c(CN2CCc3ccccc3C2)cc(Cl)c2cccnc12,7.26 µM
16,C=CCSc1cc(C)nc2c(-c3ccccc3)cnn12,> 35 µM (inactive)
17,COc1ccc(F)cc1CSc1nnnn1-c1ccc(O)cc1,> 35 µM (inactive)
18,CCC(=NCc1cc(OC)cc(OC)c1)c1c(O)[nH]c(=O)[nH]c1=O,> 35 µM (inactive)
19,CC(=O)OCCCNc1cc(Sc2ccc(C)cc2)c2nonc2c1[N+](=O)[O-],> 35 µM (inactive)
20,Cc1ccc(NC(=O)CSc2ncc3ccccn23)cc1,> 35 µM (inactive)
21,CCCC(=O)NC(c1ccc(C)cc1)c1ccc2cccnc2c1O (configuration not stated),7.22 µM
22,COc1ccc(CSCC(=O)Nc2ccc(S(=O)(=O)N3CCCCCC3)cc2)cc1,> 35 µM (inactive)
23,CN1CCN(Cc2nc3ccccc3c(=O)n2Cc2nc(-c3ccccc3F)cs2)CC1,8.66 µM
24,CCc1cnccc1CCC(=O)Nc1ccccc1C,> 35 µM (inactive)
25,Cc1cccc(NC(=S)N2CCC(N(C)CC3CCCO3)CC2)c1 (configuration not stated),> 35 µM (inactive)
26,COc1ccccc1CNC(=O)c1cccc(NC(=O)c2ccccc2)c1,> 35 µM (inactive)

row,SMILES,EC50
1,COc1ccc(/C=C2\SC(=O)N(CCC(=O)N(C)C3CCS(=O)(=O)C3)C2=O)cc1 (configuration not stated),> 35 µM (inactive)
2,CC(C(=O)Nc1ccccc1-c1ccccc1)N1CCN(C(=O)c2ccccc2)CC1 (configuration not stated),> 35 µM (inactive)
3,O=C1CCCC2=C1C(Cc1ccccc1)C1=C(CCCC1=O)O2,> 35 µM (inactive)
4,CN(C)/N=C/C=C1\CCC/C(=C/c2cccs2)C1=O,> 35 µM (inactive)
5,CCCn1c(=NC(=O)c2c(-c3c(F)cccc3Cl)noc2C)c(C(=O)OCC)cc2c(=O)n3ccccc3nc21,22.2 µM
6,CCOC(=O)c1c(NC(=O)CCC(=O)O)sc2c1CCCCC2,> 35 µM (inactive)
7,COc1ccc2c(c1)-c1nc(NC(=O)c3ccco3)sc1CC2,> 35 µM (inactive)
8,Cc1ccccc1-c1nc2ccccc2c(=O)n1/N=C/c1ccccc1[N+](=O)[O-],> 35 µM (inactive)
9,CCCCNc1nc(N)nc(-c2cc(Cl)ccc2O)n1,> 35 µM (inactive)
10,Cc1oc(-c2ccc(Cl)cc2)nc1CS(=O)CC(=O)NCCN1CCCCCC1 (configuration not stated),> 35 µM (inactive)
11,CC(=O)N1c2ccc(S(=O)(=O)NCCc3ccccc3)cc2CC1C (configuration not stated),> 35 µM (inactive)
12,O=C(O)c1cccc(N2CCCC2=O)c1,> 35 µM (inactive)
13,Cc1ccc(O)c(NC(=O)c2ccc3c(c2)C(=O)N(Cc2ccco2)C3=O)c1,> 35 µM (inactive)
14,O=C(/C=C/c1cn(-c2ccccc2)nc1-c1ccccc1)Nc1ccc(C(=O)O)cc1,> 35 µM (inactive)
15,O=C1C=C(c2ccccc2)CC(c2cccs2)C1n1cnc([N+](=O)[O-])c1 (configuration not stated),> 35 µM (inactive)
16,O=C(N/N=C/c1ccccc1O)c1cccc(C(F)(F)F)c1,14.3 µM
17,Cc1onc(-c2ccccc2)c1C(=O)Nc1ccc(S(=O)(=O)N2CCCC2)cc1,> 35 µM (inactive)
18,CCCCCC(=O)NNC(=S)NC(=O)c1cccc([N+](=O)[O-])c1,> 35 µM (inactive)
19,CCOC(=O)c1cnc(-n2nc(C)cc2C)nc1NNc1nc(-c2ccccc2)cc(-c2ccccc2)n1,1.81 µM
20,CC(C)C(=O)NC(c1ccco1)c1ccc2cccnc2c1O (configuration not stated),4.47 µM
21,O=C1CN(c2ccccc2)C(=O)N1,> 35 µM (inactive)
22,Cc1ccc(S(=O)(=O)N2CC(C)N(C(=O)N3CCOCC3)C2C)cc1 (configuration not stated),> 35 µM (inactive)
23,CCOc1ccc(NC(=O)CSc2nnc(Cn3cnc4ccccc43)n2C)cc1,> 35 µM (inactive)
24,Cc1ccc(-c2cc(N)n(-c3ccc(F)cc3)n2)cc1,> 35 µM (inactive)
25,CCCCc1ccc(NC(=O)C2CCN(S(C)(=O)=O)CC2)cc1,> 35 µM (inactive)
26,Cc1ccc(C2(C)NC(=O)N(CC(=O)Nc3ccccc3N3CCCC3)C2=O)cc1 (configuration not stated),> 35 µM (inactive)
